As a reminder, the MIC is the lowest concentration that inhibits growth of the organism. What is called inhibition is the share of the control response that was lost under treatment. For orientation: LD50 means the dose at which mortality reaches 50%.

We go through 5 molecules from patent publication US4820873A, “Pyrene derivatives” (priority 1984, dated 1989).

In one series the test system is P388/0 tumor cells. The series can be described thus: Lymphocytic Leukemia P388/0 Test. It counts as in vivo, CD2-F1 mice. The conditions noted are these: median survival time; intraperitoneal, days 1, 5, 9; active if ≥120%; Optimal Dose (mg/kg): 2A 250; 2B 450; 3 120; 4 200; 5A 303; 6 366; 7 220; 8 300; 1A 300; 10 198; 11 300; 13 220; 15 555; 16 1013; 17B 250; 18 300; 19 40; 20G 125; 21C 168; 22D 180; 23B 18O. An excerpt: (§1) Methods for evaluating the antitumor activity of these compounds are essentially those used in the Tumor Panel by the Development Therapeutics Program, Division of Cancer Treatment, National Cancer Institute, A. Goldin, et al., Methods in Cancer Research, Vol. XVI, p. 165, Academic Press (1979). Some modifications in dose level and schedule have been made to increase the testing efficiency.
(§2) CD2-F1 mice, of the same sex, weighing 20±3 g, are used for this test. Control and test animals are injected intraperitoneally with a suspension of ~10^6 viable P388/0 tumor cells on day 0. In each test, several dose levels which bracket the LD20 of the compound are evaluated; each dose level group contains 6 animals. The test compounds are prepared either in physiologic saline containing 0.05% Tween 80 or distilled water containing 5% dextrose and are administered intraperitoneally on days 1, 5, and 9 relative to tumor implant. Doses are on a mg/kg basis according to individual animals' body weights. The day of death for each animal is recorded, the median identified for each group and the ratios of median survival time for treated (T)/control (C) groups are calculated. The criterion for activity is T/C×100≥120%.

A short description of a further series: LD20 in the P388/0 test. It counts as in vivo, CD2-F1 mice. Conditions: intraperitoneal, days 1, 5, 9; doses are on a mg/kg basis. Here is the method:
as §2

A further series concerns L1210 cells. Nature of the series: Lymphocytic Leukemia L1210 Test. The conditions noted are these: 150 mg/kg; protocol as P388/0 (intraperitoneal, days 1, 5, 9); active if ≥125%. It counts as in vivo, CD-2-F1 mouse.
Description: as §1, §2
The protocol for this test is identical to that for P388/0, except that the number of L1210 cells implanted on day 0 is ~105/mouse. […]

For series [1], the system named is Mycoplasma smegmatis (S3264). The series can be described thus: Antibacterial screening, Mycoplasma smegmatis, agar dilution assay. It counts as cell-based. The source says:
(§3) Antibacterial testing against Mycoplasma smegmatis (S3264) and Streptococcus pyogens (CN10) was done with slight modifications using standard agar dilution assays as outlined in Manual of Clinical Microbiology, Second Ed., E. H. Lennette, E. H. Spaulding and J. P. Truant Eds., American Society for Microbiology, Washington, DC, 1974.
On the technique in general: In agar dilution, organisms are placed on agar that contains the substance at set levels.

Series [2] has as its system Candida albicans (CN1863). Nature of the series: Antifungal screening, Candida albicans, broth and agar dilution assays. It counts as cell-based. The conditions noted are these: Medium: Wellcotest sensitivity test agar plus 7% lysed horse blood. An excerpt: Antifungal testing against Candida albicans (CN1863) was done with slight modifications using a combination of broth and agar dilution assays as outlined in Laboratory Handbook of Medical Mycology, Chapter 6, pages 441-446, M. R. McGinnis, Academic Press, New York, NY, 1980.
Medium: Wellcotest* sensitivity test agar plus 7% lysed horse blood.

The next series concerns Trichomonas vaginalis. The series can be described thus: Antiprotozoal testing, Trichomonas vaginalis (in vitro). It counts as cell-based. Conditions: 40 mg/L, Stenton or Modified Diamond's medium, read-out: Result (screen code, inhibition). An excerpt: Antiprotozoal testing against Trichomonas vaginalis was done using methods outlined by R. M. Michaels in Advances in Chemotherapy, 3, 39-108 (1968).
(Stenton or Modified Diamond's medium)

Series [3] has as its system Nippostrongylus brasiliensis (Immature - free living stages). Nature of the series: Anthelmintic screening, Nippostrongylus brasiliensis. It counts as cell-based. An excerpt:
Anthelmintic testing against Nippostrongylus brasiliensis was done using methods as outlined in D. C. Jenkins, R. Armitage, and T. S. Carrington, Zetschrift fur Parasitenkunde 63, 261-269 (1980).

A further series can be described thus: LD50 Tests. Conditions: in vivo; IP single dose - CD1 Male Mouse. An excerpt:
|(IP single dose - CD1 Male Mouse)

The subject of another series is Lewis Lung Carcinoma. Nature of the series: Lewis Lung Carcinoma Test. It counts as in vivo, mouse (BD-F1 mice; tumor from C57B1/6 mouse). Conditions: 150 mg/kg; administered as in P388/0 protocol; active if ≥140%.
Description: as §1
This tumor arose spontaneously in the lung of a C57B1/6 mouse and is maintained by subcutaneous passage in that strain. The solid tumor is excised aseptically and placed in sterile saline. Pieces of viable tumor tissue are minced finely with scissors and forced through a 200 mesh stainless steel screen to disaggregate the tumor cells into a suspension. 10^6 Viable cells and injected intravenously into the tail vein of BD-F1, mice of the same sex weighing 20±3 g. In each test, several dose levels which bracket the LD20 for the compound are evaluated. Ten animals are included in each dose level group, and twenty animals in the untreated control group. The test compounds are prepared and aministered as in the P388/0 protocol. The day of death for each animal is recorded, the median identified for each group and the ratios of median survival time for treated (T)/control (C) groups are calculated. The criterion for activity is T/C×100≥140%.

The subject of a further series is B16 cells. Nature of the series: Melanotic Melanoma B16 test. It counts as in vivo, B6C3-F1 mice. Conditions: dosing as in P388/0 test, active if ≥125%.
Description: as §1
B6C3-F1 mice of the same sex, weighing 20+3 g, are used for this test. A suspension of B16 cells is prepared from a non-necrotic portion of solid tumor tissue obtained from a passage mouse. One gram of tumour is homogenized in 9 mL ice-cold Earle's salts solution and filtered through 1000 mesh screen to remove debris. 0.5 mL of the resulting brei is injected intraperitoneally into each animal. Dosing is carried out as in the P388/0 and L1210 tests. Days of death are recorded for a 60 day period, and T/C ratio calculated as in the P388/0 and L1210 tests. The criterion for activity is T/C×100≥125%.

For series [4], the system named is Streptococcus pyogenes (CN10). Nature of the series: Antibacterial testing, Streptococcus pyogenes, agar dilution assay. It counts as cell-based.
Description: as §3

The test system of a further series is Eimeria tenella. The series can be described thus: Antiprotozoal screening, Eimeria tenella (in vitro). The conditions noted are these: read-out: Result (screen code, inhibition). It counts as cell-based. An excerpt:
Antiprotozoal testing against Eimeria tenella was done using methods outlined in V. S. Latter and D. Wilson, Parasitology 79, 169 (1979).

Where a name gives a salt, the structure may show the parent alone.

Consider “2-((6-Bromo-1-pyrenylmethyl)amino)-2-methyl-1,3-propanediol hydrochloride and 2-((8-Bromo-1-pyrenylmethyl)amino)-2-methyl-1,3-propanediol hydrochloride [Example 17B]”, for which the “T/C × 100% (Excluding 30 Day Survivors)” value in the series on P388/0 tumor cells is given as “+135%”. Further, in “LD20 in the P388/0 test”, the LD20 was found to be 557.
`CC(CO)(CO)NCc1ccc2ccc3cccc4ccc1c2c34` [Example 1A, 2-methyl-2-((1-pyrenylmethyl)amino)-1,3-propanediol hydrochloride] had an LD20 in the series “LD20 in the P388/0 test” of 375. Moreover, in the series on L1210 cells, the “T/C × 100% Excluding 30 day Survivors” value is given as “+129%”. Besides, the MIC was ≤ 5 µg/mL in [1], 50 µg/mL in series [2] and 50 µg/mL in series [3]. In addition, in the series on Trichomonas vaginalis, the inhibition at 40 µg/mL was in the range of 76 to 100%. For the same molecule, the LD50 in “LD50 Tests” came out at 350 mg/kg.
Turning to `CC(CO)(CO)NCc1ccc2ccc3cccc4ccc1c2c34` [Example 1B, 2-methyl-2-((1-pyrenylmethyl)amino)-1,3-propanediol methanesulfonate], the “T/C × 100% Excluding 60 day Survivors” value in the series with Lewis Lung Carcinoma is reported as 208%.
Molecule `CCC(CO)(CO)NCc1ccc2ccc3cccc4ccc1c2c34` [Example 5A, 2-Ethyl-2-((1-pyrenylmethyl)amino)-1,3-propanediol hydrochloride] gave an LD20 in the series “LD20 in the P388/0 test” of 225. For the same molecule, the “T/C × 100% Excluding 60 day Survivors” value in the series with B16 cells (225 mg/kg) is reported as “+159%”. In addition, the minimum inhibitory concentration (MIC) was found to be 3 µg/mL in series [1], 3 µg/mL in series [4], 50 µg/mL in series [2] and 100 µg/mL in [3]. In the series with Trichomonas vaginalis, the inhibition at 40 µg/mL is 51 to 75%. In “LD50 Tests”, the LD50 stood at 160 mg/kg.
Turning to `OCC(CO)(CO)NCc1ccc2ccc3cccc4ccc1c2c34` [Example 10, 2-Hydroxymethyl-2-((1-pyrenylmethyl)amino)-1,3-propanediol hydrochloride], in the series “LD20 in the P388/0 test”, the LD20 is reported as 215. Moreover, the “T/C × 100% Excluding 60 day Survivors” value in the series on B16 cells (150 mg/kg) is given as “+133%”. In addition, the MIC in series [1] was > 50 µg/mL; in series [4], 5 µg/mL; in series [2] it was > 50 µg/mL; in series [3], ≥ 50 µg/mL. Further, in the series on Eimeria tenella, the inhibition at 0.37 µg/mL lay in the range of 76 to 100%. Besides, the LD50 in the series “LD50 Tests” came to 160 mg/kg.
